This assay has as its target T1, homomeric rat ASIC1b (rASIC1b) (Rattus norvegicus, UniProt P55926).
T1 construct: expressed in transfected cells; host or cells: Xenopus laevis oocytes, mRNA microinjected
T1 sequence (P55926 1-559 isoform P55926-3): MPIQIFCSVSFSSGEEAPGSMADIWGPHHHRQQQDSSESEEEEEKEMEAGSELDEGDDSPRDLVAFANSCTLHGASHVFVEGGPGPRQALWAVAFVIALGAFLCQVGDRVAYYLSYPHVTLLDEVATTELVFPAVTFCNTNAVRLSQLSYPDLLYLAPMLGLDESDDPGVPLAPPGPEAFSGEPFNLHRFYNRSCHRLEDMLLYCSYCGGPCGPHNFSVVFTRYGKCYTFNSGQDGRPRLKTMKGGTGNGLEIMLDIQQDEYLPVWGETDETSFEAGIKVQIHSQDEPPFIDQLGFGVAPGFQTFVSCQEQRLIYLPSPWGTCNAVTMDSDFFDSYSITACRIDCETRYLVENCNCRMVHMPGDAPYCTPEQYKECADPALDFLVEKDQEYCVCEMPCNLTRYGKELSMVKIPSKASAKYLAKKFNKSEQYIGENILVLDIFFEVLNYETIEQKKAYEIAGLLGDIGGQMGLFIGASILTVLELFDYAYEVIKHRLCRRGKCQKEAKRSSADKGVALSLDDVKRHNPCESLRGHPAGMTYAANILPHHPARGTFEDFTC
Nature of the assay: TEVC recordings, homomeric rASIC1b. Type of assay: cell-based. The text has this:
Figure 4 The inhibitory effect of Mamb-AL on other ASIC1-containing channels exceeds that of Mamb. (A,C) Representative current traces showing the effects of various concentrations of Mamb (left panels) and Mamb-AL (right panels) on homomeric rat ASIC1b (rASIC1b) (A) and heteromeric rat ASIC1a/3 (rASIC1a/3) channels (C). Currents were evoked by a pH 5.5 stimulus following a conditioning pH of 7.4, with peptides applied for 30 s prior to the pH stimulus. (B) Dose–response curves for the inhibitory effects of Mamb and Mamb-AL on rASIC1b. Each data point represents measurements from 5 to 7 cells. (D) Bar graph quantifying the inhibitory effects of Mamb and Mamb-AL on rASIC1a/3, shown as a percentage of the corresponding control currents (n = 5). Data are presented as mean ± SEM; * p< 0.05, unpaired t-test. […] Data are shown as mean ± SEM; ns indicates no significant difference vs. control (dotted horizontal line), paired t-test. […]
Whole-cell ASIC currents were measured using the two-electrode voltage clamp (TEVC) method with a GeneClamp 500 amplifier (Axon Instruments, Union City, NJ, USA). […]
Electrophysiological and behavioral data were analyzed using OriginPro 8.6.0 (OriginLab, Washington, DC, USA). […] Statistical significance between the Mamb and Mamb-AL groups was determined using an unpaired t-test. […]

This is an account of results in publication PMC11946789, “Two Amino Acid Substitutions Improve the Pharmacological Profile of the Snake Venom Peptide Mambalgin” (Toxins, 2025).

“Also recorded” adds a separate entry of the source. Bridges are numbered along the chain shown (N, C = ends). Where no end group is shown, it is not given here.

In the case of “LKCYQHGKVVTCHRDAKFCYHNTGLPFRNLKLILQGCSSSCSETENNKCCSTDRCNK (disulfide 3-19, 12-37, 41-49, 50-55 (inferred)) [Mamb-AL]”, the “greater potency / inhibition of rASIC1b” value (compared with Mamb) is on record as “five-fold; also recorded: five times greater potency”. It took 22 ± 1 nM to reach half-maximal inhibition (pH stimulus 5.5, conditioning pH 7.4, peptide applied 30 s before stimulus, Xenopus laevis oocytes, mean ± SEM, 5 to 7 cells) (IC50).
